Laboratory results as given in the NIST ThermoML archive (doi:10.1016/j.jct.2019.02.011).
Numbers after ± are expanded uncertainties.

Experiment: xn = mol fraction of the nth substance listed
Conditions: Liquid, Vibrating tube method

COC(=O)OC [dimethyl carbonate] + CCO
mass density [kg/m3]
Conditions	100 kPa	5000 kPa	10000 kPa	15000 kPa	20000 kPa	25000 kPa	30000 kPa	35000 kPa	40000 kPa
288.15 K, x1 = 0.0252	804.2 ± 1.4	808 ± 1.4	812.06 ± 1.4	815.89 ± 1.4	819.61 ± 1.4	822.92 ± 1.4	826.21 ± 1.4	829.16 ± 1.4	832.33 ± 1.4
288.15 K, x1 = 0.0506	813.67 ± 1.4	817.57 ± 1.4	821.64 ± 1.4	825.53 ± 1.4	829.25 ± 1.4	832.61 ± 1.4	835.95 ± 1.4	838.9 ± 1.4	842.19 ± 1.4
288.15 K, x1 = 0.0757	823.01 ± 1.4	826.96 ± 1.4	831.04 ± 1.4	834.98 ± 1.4	838.69 ± 1.4	842.06 ± 1.4	845.41 ± 1.4	848.42 ± 1.4	851.7 ± 1.4
288.15 K, x1 = 0.1003	831.96 ± 1.4	835.91 ± 1.4	839.99 ± 1.4	843.94 ± 1.4	847.7 ± 1.4	851.08 ± 1.4	854.48 ± 1.4	857.54 ± 1.4	860.78 ± 1.4
288.15 K, x1 = 0.1508	849.93 ± 1.4	853.94 ± 1.4	858.08 ± 1.4	862.04 ± 1.4	865.84 ± 1.4	869.28 ± 1.4	872.69 ± 1.4	875.76 ± 1.4	879.06 ± 1.4
288.15 K, x1 = 0.2	866.84 ± 1.4	870.91 ± 1.4	875.1 ± 1.4	879.08 ± 1.4	882.88 ± 1.4	886.33 ± 1.4	889.8 ± 1.4	892.93 ± 1.4	896.24 ± 1.4
288.15 K, x1 = 0.2547	885.11 ± 1.4	889.19 ± 1.4	893.38 ± 1.4	897.43 ± 1.4	901.27 ± 1.4	904.73 ± 1.4	908.21 ± 1.4	911.35 ± 1.4	914.67 ± 1.4
288.15 K, x1 = 0.3002	899.9 ± 1.4	903.99 ± 1.4	908.19 ± 1.4	912.25 ± 1.4	916.09 ± 1.4	919.56 ± 1.4	923.05 ± 1.4	926.24 ± 1.4	929.57 ± 1.5
288.15 K, x1 = 0.3498	915.51 ± 1.4	919.65 ± 1.4	923.86 ± 1.4	927.88 ± 1.4	931.71 ± 1.4	935.24 ± 1.5	938.74 ± 1.5	941.95 ± 1.5	945.28 ± 1.5
288.15 K, x1 = 0.4	930.78 ± 1.4	934.94 ± 1.4	939.15 ± 1.4	943.23 ± 1.5	947.06 ± 1.5	950.6 ± 1.5	954.16 ± 1.5	957.37 ± 1.5	960.71 ± 1.5
288.15 K, x1 = 0.449	945.14 ± 1.5	949.35 ± 1.5	953.57 ± 1.5	957.66 ± 1.5	961.48 ± 1.5	965.03 ± 1.5	968.6 ± 1.5	971.87 ± 1.5	975.22 ± 1.5
288.15 K, x1 = 0.4996	959.51 ± 1.5	963.73 ± 1.5	967.96 ± 1.5	972.06 ± 1.5	975.93 ± 1.5	979.49 ± 1.5	983.06 ± 1.5	986.34 ± 1.5	989.7 ± 1.5
288.15 K, x1 = 0.5507	973.56 ± 1.5	977.78 ± 1.5	982.01 ± 1.5	986.13 ± 1.5	989.99 ± 1.5	993.56 ± 1.5	997.14 ± 1.5	1000.43 ± 1.5	1003.8 ± 1.5
288.15 K, x1 = 0.6005	986.73 ± 1.5	990.95 ± 1.5	995.19 ± 1.5	999.32 ± 1.5	1003.17 ± 1.5	1006.8 ± 1.5	1010.39 ± 1.5	1013.69 ± 1.5	1017.06 ± 1.5
288.15 K, x1 = 0.6455	998.17 ± 1.5	1002.45 ± 1.5	1006.64 ± 1.5	1010.83 ± 1.5	1014.68 ± 1.5	1018.32 ± 1.5	1021.92 ± 1.5	1025.22 ± 1.5	1028.6 ± 1.5
288.15 K, x1 = 0.6931	1009.92 ± 1.5	1014.21 ± 1.5	1018.41 ± 1.5	1022.55 ± 1.5	1026.4 ± 1.5	1030.05 ± 1.5	1033.65 ± 1.5	1037.01 ± 1.5	1040.4 ± 1.5
288.15 K, x1 = 0.7502	1023.43 ± 1.5	1027.72 ± 1.5	1031.92 ± 1.5	1036.08 ± 1.5	1039.92 ± 1.5	1043.58 ± 1.5	1047.24 ± 1.5	1050.61 ± 1.5	1054 ± 1.6
288.15 K, x1 = 0.8009	1035 ± 1.5	1039.3 ± 1.5	1043.51 ± 1.5	1047.68 ± 1.5	1051.52 ± 1.5	1055.18 ± 1.6	1058.85 ± 1.6	1062.22 ± 1.6	1065.62 ± 1.6
288.15 K, x1 = 0.8505	1046 ± 1.5	1050.3 ± 1.5	1054.51 ± 1.5	1058.68 ± 1.6	1062.52 ± 1.6	1066.19 ± 1.6	1069.82 ± 1.6	1073.25 ± 1.6	1076.6 ± 1.6
288.15 K, x1 = 0.9008	1056.7 ± 1.5	1061.01 ± 1.6	1065.22 ± 1.6	1069.4 ± 1.6	1073.24 ± 1.6	1076.92 ± 1.6	1080.55 ± 1.6	1083.98 ± 1.6	1087.34 ± 1.6
288.15 K, x1 = 0.9255	1061.81 ± 1.6	1066.14 ± 1.6	1070.35 ± 1.6	1074.54 ± 1.6	1078.38 ± 1.6	1082.06 ± 1.6	1085.69 ± 1.6	1089.13 ± 1.6	1092.49 ± 1.6
288.15 K, x1 = 0.9477	1066.36 ± 1.6	1070.68 ± 1.6	1074.89 ± 1.6	1079.08 ± 1.6	1082.92 ± 1.6	1086.6 ± 1.6	1090.23 ± 1.6	1093.68 ± 1.6	1097.04 ± 1.6
288.15 K, x1 = 0.9735	1071.55 ± 1.6	1075.89 ± 1.6	1080.08 ± 1.6	1084.28 ± 1.6	1088.11 ± 1.6	1091.79 ± 1.6	1095.43 ± 1.6	1098.88 ± 1.6	1102.23 ± 1.6
288.15 K, x1 = 1	1076.83 ± 0.57	1081.15 ± 0.57	1085.32 ± 0.58	1089.52 ± 0.6	1093.35 ± 0.61	1096.99 ± 0.62	1100.63 ± 0.63	1104.08 ± 0.65	1107.4 ± 0.67
293.15 K, x1 = 0.0252	799.52 ± 1.4	803.53 ± 1.4	807.63 ± 1.4	–	–	–	–	–	–
293.15 K, x1 = 0.0506	808.93 ± 1.4	813.04 ± 1.4	817.2 ± 1.4	–	–	–	–	–	–
293.15 K, x1 = 0.0757	818.21 ± 1.4	822.32 ± 1.4	826.48 ± 1.4	–	–	–	–	–	–
293.15 K, x1 = 0.1003	827.05 ± 1.4	831.21 ± 1.4	835.37 ± 1.4	–	–	–	–	–	–
293.15 K, x1 = 0.1508	844.9 ± 1.4	849.11 ± 1.4	853.32 ± 1.4	–	–	–	–	–	–
293.15 K, x1 = 0.2	861.69 ± 1.4	865.96 ± 1.4	870.22 ± 1.4	–	–	–	–	–	–
293.15 K, x1 = 0.2547	879.83 ± 1.4	884.11 ± 1.4	–	–	–	–	–	–	–
293.15 K, x1 = 0.3002	894.46 ± 1.4	898.79 ± 1.4	–	–	–	–	–	–	–
293.15 K, x1 = 0.3498	909.95 ± 1.4	914.32 ± 1.4	–	–	–	–	–	–	–
293.15 K, x1 = 0.4	925.11 ± 1.4	929.49 ± 1.4	–	–	–	–	–	–	–
293.15 K, x1 = 0.449	939.35 ± 1.4	943.78 ± 1.5	–	–	–	–	–	–	–
293.15 K, x1 = 0.4996	953.6 ± 1.5	958.04 ± 1.5	–	–	–	–	–	–	–
293.15 K, x1 = 0.5507	967.53 ± 1.5	971.96 ± 1.5	–	–	–	–	–	–	–
293.15 K, x1 = 0.6005	980.58 ± 1.5	985.07 ± 1.5	–	–	–	–	–	–	–
293.15 K, x1 = 0.6455	991.96 ± 1.5	996.45 ± 1.5	–	–	–	–	–	–	–
293.15 K, x1 = 0.6931	1003.6 ± 1.5	1008.14 ± 1.5	–	–	–	–	–	–	–
293.15 K, x1 = 0.7502	1017.03 ± 1.5	1021.58 ± 1.5	–	–	–	–	–	–	–
293.15 K, x1 = 0.8009	1028.54 ± 1.5	1033.09 ± 1.5	–	–	–	–	–	–	–
293.15 K, x1 = 0.8505	1039.42 ± 1.5	1043.97 ± 1.5	–	–	–	–	–	–	–
293.15 K, x1 = 0.9008	1050.05 ± 1.5	1054.61 ± 1.5	–	–	–	–	–	–	–
293.15 K, x1 = 0.9255	1055.15 ± 1.5	1059.71 ± 1.6	–	–	–	–	–	–	–
293.15 K, x1 = 0.9477	1059.65 ± 1.6	1064.21 ± 1.6	–	–	–	–	–	–	–
293.15 K, x1 = 0.9735	1064.83 ± 1.6	1069.39 ± 1.6	–	–	–	–	–	–	–
293.15 K, x1 = 1	1070.06 ± 0.56	1074.62 ± 0.57	–	–	–	–	–	–	–
